From US20070249710A1, “Biaromatic compounds and cosmetic/pharmaceutical applications thereof” (GALDERMA RESEARCH & DEVELOPMENT, priority 2004, published 2007) come the findings set out here.

The AC50 is the midpoint of the concentration-response curve, whichever way the signal moves. Lower therefore signals greater potency. A word on the melting point: it is the temperature, or range, at which the solid turns liquid.

One data set has as its target T1, RARalpha (Homo sapiens, UniProt P10276).
T1 sequence (P10276 183-417 limits assumed): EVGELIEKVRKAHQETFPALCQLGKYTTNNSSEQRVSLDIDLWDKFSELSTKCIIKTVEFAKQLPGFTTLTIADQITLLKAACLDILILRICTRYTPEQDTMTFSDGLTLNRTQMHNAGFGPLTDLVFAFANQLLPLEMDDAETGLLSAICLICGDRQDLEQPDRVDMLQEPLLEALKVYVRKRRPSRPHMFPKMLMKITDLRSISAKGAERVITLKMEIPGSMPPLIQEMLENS
The data set is described as follows: Transactivation test, HeLa reporter cells (RARalpha). Format: cell-based. The protocol:
(§1) The activation of the receptors by an agonist (activator) in HeLa cells results in the expression of a reporter gene, luciferase, which, in the presence of a substrate, generates light. It is therefore possible to measure the activation of the receptors by quantifying the luminescence produced after incubation of the cells in the presence of a reference antagonist. The activator products displace the antagonist from its site, thus allowing activation of the receptor. The measurement of the activity is carried out by quantifying the increase in the light produced. This measurement makes it possible to determine the activating activity of the compound for use in the invention.
(§2) In this study, a constant which is the affinity of the molecule for the receptor is determined. Since this value can fluctuate depending on the basal activity and the expression of the receptor, it is designated apparent Kd (KdApp). […]
(§3) These cross curves make it possible to determine the AC50 values (concentration at which 50% activation is observed) for the reference ligand at various concentrations of product to be tested. These AC50 values are used to calculate the Schild regression by plotting a straight line corresponding to the Schild equation (“quantitation in receptor pharmacology”, Terry P. Kenakin, Receptors and Channels, 2001, 7, 371-385).
(§4) In the case of an agonist, the AC50 value (concentration that gives 50% of the activity) is calculated by plotting the curve of the product at the concentration of the reference ligand that gives 80% activation. The percentage activation which corresponds to the maximum level of activity obtained is also measured. […]
(§5) The culture medium is removed by turning the plates upside down and 100 μl of a 1:1 PBS (phosphate buffer solution)/luciferin mixture are added to each well. After 5 minutes, the plates are read with a luminescence reader.

The target of a further data set is T2, RARbeta (Homo sapiens, UniProt P10826).
T2 sequence (P10826 183-417 limits assumed): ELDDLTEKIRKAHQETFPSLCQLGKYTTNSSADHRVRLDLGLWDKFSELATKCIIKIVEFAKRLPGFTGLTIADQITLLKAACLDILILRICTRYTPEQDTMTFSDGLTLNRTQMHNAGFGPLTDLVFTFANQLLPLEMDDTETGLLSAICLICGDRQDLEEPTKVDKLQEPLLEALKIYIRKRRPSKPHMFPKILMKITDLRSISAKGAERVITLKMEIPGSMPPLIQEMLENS
The data set is described as follows: Transactivation test, HeLa reporter cells (RARbeta). Format: cell-based. The protocol:
as §1, §2, §3, §4, §5

For a further data set, the target named is T3, RARgamma (Homo sapiens, UniProt P13631).
T3 sequence (P13631 185-419 limits assumed): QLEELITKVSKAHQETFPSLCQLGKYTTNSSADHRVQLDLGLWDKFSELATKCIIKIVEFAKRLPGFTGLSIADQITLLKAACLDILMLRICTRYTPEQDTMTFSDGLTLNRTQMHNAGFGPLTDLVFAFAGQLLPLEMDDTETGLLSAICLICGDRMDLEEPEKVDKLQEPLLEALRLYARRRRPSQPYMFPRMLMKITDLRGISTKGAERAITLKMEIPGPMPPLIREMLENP
Nature of the data set: Transactivation test, HeLa reporter cells (RARgamma). Format: cell-based. The following applies: for specificity for RARgamma in comparison with RARalpha and RARbeta: transactivation test, in words. On the procedure:
as §1
In this study, a constant which is the affinity of the molecule for the receptor is determined. Since this value can fluctuate depending on the basal activity and the expression of the receptor, it is designated apparent Kd (KdApp).
To determine this constant, “cross curves” for the product to be tested (2-hydroxy-4-[2-hydroxyimino-2-(5,5,8,8-tetramethyl-5,6,7,8-tetrahydronaphthalen-2-yl)ethoxy]benzoic acid), against a reference antagonist, otherwise called reference ligand, 4-(5,5-dimethyl-8-p-tolyl-5,6-dihydronaphthalen-2-ylethynyl)benzoic acid, are produced. The product to be tested is used at 10 concentrations and the reference antagonist at 7 concentrations. In each well (of a 96-well plate), the cells are in contact with one concentration of the product to be tested and one concentration of the reference antagonist.
Measurements are also carried out for the total agonist control, otherwise called 100% control (4-[2-(5,5,8,8-tetramethyl-5,6,7,8-tetrahydronaphthalen-2-yl)propenyl]benzoic acid), and the inverse agonist control, otherwise called 0% control, 4-{(E)-3-[4-(4-tert-butylphenyl)-5,5,8,8-tetramethyl-5,6,7,8-tetrahydronaphthalen-2-yl]-3-oxopropenyl}benzoic acid.
as §3
In the case of an agonist, the AC50 value (concentration that gives 50% of the activity) is calculated by plotting the curve of the product at the concentration of the reference ligand that gives 80% activation. The percentage activation which corresponds to the maximum level of activity obtained is also measured.
The HeLa cell lines used are stable transfectants containing the plasmids ERE-βGlob-Luc-SV-Neo (reporter gene) and RAR (α, β, γ) ER-DBD-puro. These cells are seeded into 96-well plates at a rate of 10,000 cells per well in 100 μl of DMEM medium without phenol red, supplemented with 10% of delipidized calf serum. The plates are then incubated at 37° C., 7% CO2 for 4 hours. […]
as §5

[1] abbreviates: concentration that gives 50% of the activity, HeLa luciferase reporter.

With `CC1(C)CCC(C)(C)c2cc(C(COc3ccc(C(=O)O)c(O)c3)=NO)ccc21` [Acid compound of the invention, 2-hydroxy-4-[2-hydroxyimino-2-(5,5,8,8-tetramethyl-5,6,7,8-tetrahydronaphthalen-2-yl)ethoxy]benzoic acid], the Kd on RARalpha (apparent Kd, Schild regression against reference antagonist, HeLa luciferase reporter, read-out: RARalpha Kdapp) turned out to be 4.06 µM; at RARbeta (apparent Kd, Schild regression against reference antagonist, HeLa luciferase reporter, read-out: RARbeta Kdapp), 1030 nM; on RARgamma (apparent Kd, Schild regression against reference antagonist, HeLa luciferase reporter, read-out: RARgamma Kdapp) it was 8 nM. Moreover, the RARalpha % activation on RARalpha (at 10 μM, maximum level of activity) came to 100%. For the same molecule, the results for the AC50 at RARalpha (setting [1]), at RARbeta (setting [1]) and at RARgamma (setting [1]) were 1700 nM, 600 nM and 9 nM, respectively. Besides, the “RARbeta % Activation” value at RARbeta (at 5 μM, maximum level of activity) was determined as 100%. The same molecule had an RARgamma % activation on RARgamma (at 0.04 μM, maximum level of activity) of 100%. The entries for the “specificity for RARgamma in comparison with RARalpha and RARbeta” value at RARgamma (listed as 2-Hydroxy-4-[2-hydroxyimino-2-(5,5,8,8-tetramethyl-5,6,7,8-tetrahydronaphthalen-) and on RARgamma (listed as 2-hydroxy-4-[2-hydroxyimino-2-(5,5,8,8-tetramethyl-5,6,7,8-tetrahydronaphthalen-) were “selective agonist or activator of the RARgamma receptor” and “great specificity for the receptor subtype RARgamma”, respectively.

`CCOC(=O)c1ccc(OCC(=NO)c2ccc3c(c2)C(C)(C)CCC3(C)C)cc1O` [Example 1, ethyl 2-hydroxy-4-[2-hydroxyimino-2-(5,5,8,8-tetramethyl-5,6,7,8-tetrahydronaphthalen-2-yl)ethoxy]benzoate] showed a melting point of 130 °C.

`CC(C)OC(=O)c1ccc(OCC(=NO)c2ccc3c(c2)C(C)(C)CCC3(C)C)cc1O` [Example 2, isopropyl 2-hydroxy-4-[2-hydroxyimino-2-(5,5,8,8-tetramethyl-5,6,7,8-tetrahydronaphthalen-2-yl)ethoxy]benzoate] came in with a melting point of 130 °C.

Molecule `CC(C)COC(=O)c1ccc(OCC(=NO)c2ccc3c(c2)C(C)(C)CCC3(C)C)cc1O` [Example 3, isobutyl 2-hydroxy-4-[2-hydroxyimino-2-(5,5,8,8-tetramethyl-5,6,7,8-tetrahydronaphthalen-2-yl)ethoxy]benzoate] showed a melting point of 96 °C.
